± gives the expanded uncertainty stated by the source.
Columns and labels:
[1] = mn = molality of the nth substance listed, in mol/kg; details: 298.15 K, 101 kPa, Liquid, Vibrating tube method
[2] = refractive index (Na D-line) (dimensionless); mn = molality of the nth substance listed, in mol/kg; details: 298.15 K, 101 kPa, Liquid, Standard Abbe refractometry

mass density ([1]; m1 = 0.1) [kg/m3] | mass density ([1]; m1 = 0.2) [kg/m3] | mass density ([1]; m1 = 0.3) [kg/m3] | mass density ([1]; m1 = 0.5) [kg/m3] | mass density ([1]; m1 = 0.7) [kg/m3] | mass density ([1]; m1 = 0.9) [kg/m3] | refractive index ([2]; m1 = 0.1) | refractive index ([2]; m1 = 0.2) | refractive index ([2]; m1 = 0.3) | refractive index ([2]; m1 = 0.5) | refractive index ([2]; m1 = 0.7) | refractive index ([2]; m1 = 0.9) | mass density ([1]; m1 = 0.15) [kg/m3] | mass density ([1]; m1 = 0.25) [kg/m3] | mass density ([1]; m1 = 0.35) [kg/m3] | mass density ([1]; m1 = 0.4) [kg/m3] | refractive index ([2]; m1 = 0.15) | refractive index ([2]; m1 = 0.25) | refractive index ([2]; m1 = 0.35) | refractive index ([2]; m1 = 0.4) | Compound
1003.27 ± 1 | 1009.2 ± 1 | 1015.29 ± 1 | 1026.51 ± 1 | 1037.43 ± 1 | 1047.8 ± 1 | 1.3349 ± 0.0009 | 1.3367 ± 0.0009 | 1.3398 ± 0.0009 | 1.344 ± 0.0009 | 1.349 ± 0.0009 | 1.3532 ± 0.0009 |  |  |  |  |  |  |  |  | OC[C@@H](O)[C@@H](O)[C@H](O)[C@H](O)CO [D-mannitol] + O
997.981 ± 1.1 | 998.931 ± 1.1 | 999.901 ± 1.1 |  |  |  | 1.3348 ± 0.0009 | 1.3382 ± 0.0009 | 1.3409 ± 0.0009 |  |  |  | 998.443 ± 1.1 | 999.413 ± 1.1 | 1000.37 ± 1.1 | 1000.88 ± 1.1 | 1.3363 ± 0.0009 | 1.3393 ± 0.0009 | 1.3419 ± 0.0009 | 1.3431 ± 0.0009 | CC(=O)NCCCCCCNC(C)=O [N,N'-diacetyl-1,6-hexanediamine] + O
1002 ± 1.1 | 1006.92 ± 1.1 | 1011.76 ± 1.1 | 1020.96 ± 1.1 | 1029.87 ± 1.1 | 1038.33 ± 1.1 | 1.3341 ± 0.0009 | 1.3361 ± 0.0009 | 1.3382 ± 0.0009 | 1.3423 ± 0.0009 | 1.346 ± 0.0009 | 1.3494 ± 0.0009 |  |  |  |  |  |  |  |  | OC[C@@H](O)[C@H](O)[C@@H](O)CO [xylitol] + O

— the NIST ThermoML archive (doi:10.1021/je300633e)
